# Test results reported in US8609715B2, “Heteroarylcarboxylic acid ester derivative” (Ajinomoto Co., Inc., priority 2009, dated 2013).
# pKi: −log10 of the molar value. Counter-ions that a name gives are not always drawn.
# Molecular target: recombinant human enteropeptidase (Homo sapiens (Human), UniProt P98073)
# Assay: Measurement of enteropeptidase inhibitory activity
# Type: biochemical
# Conditions: Dixon plot
# Procedure: Measurement of Enteropeptidase Inhibitory Activity
# Using a 96 well plate (#3915, Costar), a test compound (25 μL), 400 mM Tris-HCl buffer (pH 8.0, 25 μL) and 0.5 mg/mL fluorescence enzyme substrate (Gly-Asp-Asp-Asp-Asp-Lys-β-Naphtylamide, 25 μL) were mixed, and recombinant human enteropeptidase (R&D Systems, Inc., 25 μL) was added. Using a fluorescence plate reader fmax (Molecular Devices, Inc.), the reaction rate was measured from the time-course changes at excitation wavelength 320 nm and fluorescence wavelength 405 nm. The Ki value was calculated from the concentration of the test compound, reciprocal of reaction rate, and Km value of the enzyme substrate, and by using Dixon plot.
# Chain of recombinant human enteropeptidase (P98073 whole entry): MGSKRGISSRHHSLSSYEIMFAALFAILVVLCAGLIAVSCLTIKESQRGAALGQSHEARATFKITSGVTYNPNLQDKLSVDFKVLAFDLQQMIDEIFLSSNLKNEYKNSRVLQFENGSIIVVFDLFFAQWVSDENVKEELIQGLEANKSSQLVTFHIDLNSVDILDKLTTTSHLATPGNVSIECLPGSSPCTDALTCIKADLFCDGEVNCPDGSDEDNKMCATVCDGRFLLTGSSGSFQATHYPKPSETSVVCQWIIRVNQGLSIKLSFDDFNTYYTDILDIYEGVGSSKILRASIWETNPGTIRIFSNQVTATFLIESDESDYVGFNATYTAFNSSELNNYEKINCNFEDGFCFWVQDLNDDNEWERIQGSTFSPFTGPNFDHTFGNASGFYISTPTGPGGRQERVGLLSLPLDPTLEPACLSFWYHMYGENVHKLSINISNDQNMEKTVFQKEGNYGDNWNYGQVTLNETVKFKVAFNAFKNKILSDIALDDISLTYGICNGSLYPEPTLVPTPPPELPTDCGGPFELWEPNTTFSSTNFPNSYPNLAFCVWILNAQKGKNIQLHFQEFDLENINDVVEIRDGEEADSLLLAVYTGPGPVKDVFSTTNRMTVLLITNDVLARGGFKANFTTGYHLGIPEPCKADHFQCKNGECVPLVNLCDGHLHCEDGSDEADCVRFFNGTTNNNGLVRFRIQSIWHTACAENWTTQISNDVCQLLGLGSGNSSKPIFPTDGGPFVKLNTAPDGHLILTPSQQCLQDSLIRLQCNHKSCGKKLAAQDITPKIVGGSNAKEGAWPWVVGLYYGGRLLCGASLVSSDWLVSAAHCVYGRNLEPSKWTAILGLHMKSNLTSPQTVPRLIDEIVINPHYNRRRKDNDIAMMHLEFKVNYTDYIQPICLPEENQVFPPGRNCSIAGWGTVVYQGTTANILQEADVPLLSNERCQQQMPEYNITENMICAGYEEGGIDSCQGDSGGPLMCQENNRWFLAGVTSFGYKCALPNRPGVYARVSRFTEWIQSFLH
row,pKi,SMILES
1,9.15,"CC(Cc1ccc(C(=O)Oc2ccc(C(=N)N)cc2)o1)C(=O)O (stereo in doubt) [Compound A-42, 3-[5-(4-amidinophenoxycarbonyl)furan-2-yl]-2R-methylpropionic acid trifluoroacetic acid salt]"
2,8.64,C/C(=C\c1ccc(C(=O)Oc2ccc(C(=N)N)cc2)o1)C(=O)N[C@@H](CO)C(=O)O [Compound A-1]
3,8.71,C/C(=C\c1ccc(C(=O)Oc2ccc(C(=N)N)cc2)o1)C(=O)NCC(=O)O [Compound A-2]
4,8.94,"C/C(=C\c1ccc(C(=O)Oc2ccc(C(=N)N)cc2)o1)C(=O)O [Compound A-3, (2E)-3-[5-(4-amidinophenoxycarbonyl)-furan-2-yl]-2-methylpropenoic acid trifluoroacetic acid salt]"
5,8.57,CC(Cc1ccc(C(=O)Oc2ccc(C(=N)N)cc2)o1)C(=O)NCC(=O)O (stereo not drawn) [Compound A-4]
6,8.86,CC(Cc1ccc(C(=O)Oc2ccc(C(=N)N)cc2)o1)C(=O)N[C@@H](CO)C(=O)O (stereo partly drawn) [Compound A-5]
7,9.21,"CC(Cc1ccc(C(=O)Oc2ccc(C(=N)N)cc2)o1)C(=O)O (stereo not drawn) [Compound A-6, 3-[5-(4-amidinophenoxycarbonyl)furan-2-yl]-2-methylpropionic acid trifluoroacetic acid salt]"
8,8.83,C/C(=C\c1ccc(C(=O)Oc2ccc(C(=N)N)cc2)o1)C(=O)N(CCCO)CC(=O)O [Compound A-7]
9,8.50,CC(Cc1ccc(C(=O)Oc2ccc(C(=N)N)cc2)o1)C(=O)N(CCCO)CC(=O)O (stereo not drawn) [Compound A-9]
10,8.17,C/C(=C\c1ccc(C(=O)Oc2ccc(C(=N)N)cc2)o1)C(=O)N(CCO)Cc1ccccc1 [Compound A-10]
11,8.48,"C/C(=C\c1ccc(C(=O)Oc2ccc(C(=N)N)cc2)o1)C(=O)N(CCCO)CCC(=O)O [Compound A-12, N-{(2E)-3-[5-(4-amidino-2-phenoxycarbonyl)furan-2-yl]-2-methylpropenoyl}-N-(3-hydroxypropyl)-β-alanine trifluoroacetic acid salt]"
12,8.45,C/C(=C\c1ccc(C(=O)Oc2ccc(C(=N)N)cc2)o1)C(=O)N[C@H](C(=O)O)C(C)O (stereo partly drawn) [Compound A-14]
13,8.79,CC(Cc1ccc(C(=O)Oc2ccc(C(=N)N)cc2)o1)C(=O)N[C@@H](CCC(=O)O)C(=O)O (stereo partly drawn) [Compound A-15]
14,8.73,CC(Cc1ccc(C(=O)Oc2ccc(C(=N)N)cc2)o1)C(=O)N[C@H](C(=O)O)C(C)O (stereo partly drawn) [Compound A-16]
15,9.21,CC(Cc1ccc(C(=O)Oc2ccc(C(=N)N)cc2)o1)C(=O)N[C@@H](CC(=O)O)C(=O)O (stereo partly drawn) [Compound A-18]
16,8.72,CC(Cc1ccc(C(=O)Oc2ccc(C(=N)N)cc2)o1)C(=O)N1CCC[C@@H]1C(=O)O (stereo partly drawn) [Compound A-19]
17,8.60,CC(Cc1ccc(C(=O)Oc2ccc(C(=N)N)cc2)o1)C(=O)N1C[C@H](O)C[C@@H]1C(=O)O (stereo partly drawn) [Compound A-20]
18,8.32,CC(Cc1ccc(C(=O)Oc2ccc(C(=N)N)cc2)o1)C(=O)N1C[C@@H](O)C[C@H]1C(=O)O (stereo partly drawn) [Compound A-21]
19,9.02,C[C@H](Cc1ccc(C(=O)Oc2ccc(C(=N)N)cc2)o1)C(=O)N[C@@H](CC(N)=O)C(=O)O [Compound A-22]
20,8.70,C[C@@H](Cc1ccc(C(=O)Oc2ccc(C(=N)N)cc2)o1)C(=O)N[C@@H](CC(N)=O)C(=O)O [Compound A-23]

row,pKi,SMILES
1,9.17,CC(Cc1ccc(C(=O)Oc2ccc(C(=N)N)cc2)o1)C(=O)N(CC(=O)O)CC(=O)O (stereo not drawn) [Compound A-26]
2,9.24,CC(Cc1ccc(C(=O)Oc2ccc(C(=N)N)cc2)o1)C(=O)N[C@H](CCC(=O)O)C(=O)O (stereo partly drawn) [Compound A-27]
3,9.38,CC(Cc1ccc(C(=O)Oc2ccc(C(=N)N)cc2)o1)C(=O)N[C@H](CC(=O)O)C(=O)O (stereo partly drawn) [Compound A-28]
4,9.09,"CCC(Cc1ccc(C(=O)Oc2ccc(C(=N)N)cc2)o1)C(=O)O (stereo not drawn) [Compound A-29, 3-[5-(4-amidinophenoxycarbonyl)furan-2-yl]-2-ethylpropionic acid trifluoroacetic acid salt]"
5,8.99,CC[C@H](Cc1ccc(C(=O)Oc2ccc(C(=N)N)cc2)o1)C(=O)N[C@H](CCC(=O)O)C(=O)O [Compound A-30]
6,9.30,CCC(Cc1ccc(C(=O)Oc2ccc(C(=N)N)cc2)o1)C(=O)N[C@H](CC(=O)O)C(=O)O (stereo partly drawn) [Compound A-31]
7,9.21,"N=C(N)c1ccc(OC(=O)c2ccc(CC(=O)O)o2)cc1 [Compound A-32, 5-(4-amidinophenoxycarbonyl)furan-2-ylacetic acid trifluoroacetic acid salt]"
8,9.19,CC(Cc1ccc(C(=O)Oc2ccc(C(=N)N)cc2F)o1)C(=O)O (stereo not drawn) [Compound A-33]
9,9.01,CCCC(Cc1ccc(C(=O)Oc2ccc(C(=N)N)cc2)o1)C(=O)O (stereo not drawn) [Compound A-34]
10,9.60,"CC(Cc1ccc(C(=O)Oc2ccc(C(=N)N)cc2F)o1)C(=O)N[C@H](CC(=O)O)C(=O)O (stereo partly drawn) [Compound A-35, N-{3-[5-(4-amidino-2-fluorophenoxycarbonyl)furan-2-yl]-2-methylpropanoyl}-N-(D)-aspartic acid trifluoroacetic acid salt]"
11,9.24,"CC(Cc1ccc(C(=O)Oc2ccc(C(=N)N)cc2)o1)S(=O)(=O)O (stereo not drawn) [Compound A-36, 1-[5-(4-amidinophenoxycarbonyl)furan-2-yl]propane-2-sulfonic acid trifluoroacetic acid salt]"
12,9.19,N=C(N)c1ccc(OC(=O)c2ccc(CCC(=O)O)o2)cc1 [Compound A-37]
13,9.24,N=C(N)c1ccc(OC(=O)c2ccc(CCC(=O)N[C@@H](CC(=O)O)C(=O)O)o2)cc1 [Compound A-38]
14,9.17,"N=C(N)c1ccc(OC(=O)c2ccc(CC(=O)N[C@@H](CC(=O)O)C(=O)O)o2)cc1 [Compound A-39, N-[5-(4-amidinophenoxycarbonyl)furan-2-ylacetyl]-(L)-aspartic acid trifluoroacetic acid salt]"
15,9.30,"C[C@H](Cc1ccc(C(=O)Oc2ccc(C(=N)N)cc2)o1)C(=O)O [Compound A-41, 3-[5-(4-amidinophenoxycarbonyl)furan-2-yl]-2S-methylpropionic acid trifluoroacetic acid salt]"
16,9.40,"C[C@@H](Cc1ccc(C(=O)Oc2ccc(C(=N)N)cc2)o1)C(=O)N[C@@H](CC(=O)O)C(=O)O [Compound A-43, N-{3-[5-(4-amidinophenoxycarbonyl)-furan-2-yl]-2S-methylpropionyl}-L-aspartic acid trifluoroacetic acid salt]"
17,9.48,"C[C@H](Cc1ccc(C(=O)Oc2ccc(C(=N)N)cc2)o1)C(=O)N[C@@H](CC(=O)O)C(=O)O [Compound A-44, N-[3-[5-(4-amidinophenoxycarbonyl)-furan-2-yl]-2R-methylpropionyl]-L-aspartic acid trifluoroacetic acid salt]"
18,9.34,"C[C@@H](Cc1ccc(C(=O)Oc2ccc(C(=N)N)cc2)o1)C(=O)N[C@H](CC(=O)O)C(=O)O [Compound A-45, N-{3-[5-(4-amidinophenoxycarbonyl)-furan-2-yl]-2S-methylpropionyl}-D-aspartic acid trifluoroacetic acid salt]"
19,9.46,"C[C@H](Cc1ccc(C(=O)Oc2ccc(C(=N)N)cc2)o1)C(=O)N[C@H](CC(=O)O)C(=O)O [Compound A-46, N-{3-[5-(4-amidinophenoxycarbonyl)-furan-2-yl]-2R-methylpropionyl}-D-aspartic acid trifluoroacetic acid salt]"
